Patent EP4653440A1, “HETEROCYCLIC COMPOUND, AND PHARMACEUTICAL COMPOSITION AND USE THEREOF” (Prime Gene Therapeutics Co., Ltd., priority 2023, dated 2024)

How the values were obtained:
[1] = system: phosphorylation of myosin light chain T18/S19; experiment: In Cell Western for phosphorylation of myosin light chain in A7r5 cells; format: cell-based, rat; conditions: Rattus norvegicus, A7R5, 1 h
Excerpt: The rat smooth muscle cell line A7r5 was used, and the A7r5 cell culture conditions were DMEM containing 10% FBS. Phspho-MLC-T18/S19 specific antibody and a second detection antibody were used to detect the phosphorylation level of myosin light chain by In Cell Western. Cells treated with positive compounds were used as positive controls, while the group without compounds but with compound solvents was used as negative controls. DRAQ5 stained cell nuclei were used as internal references. GraphPad Prism 7.0 software was used, and fitting was carried out by using a non-linear regression curve with varying slopes to determine the absolute IC50 value.
On the first day, A7r5 cells were resuspended in serum-free medium and seeded into 384 wells of PDL coated transparent black plates at a density of 5000 cells per well. Serum starvation culture was performed for 4 hours, and the cells were incubated with the compound in serum-free medium for 1 hour. 50 µL of 8% PFA (polyformaldehyde) was added to each well and fixed at room temperature for 1 hour. The liquid in the wells was discard and 90 µL of ice methanol was added to each well to permeabilize the cells at 4 °C for 1 hour. Then, PBST (0.1% Tween20-PBS) was added using an automatic separator to wash three times. After patting the plate for drying, 50 µL blocking solution was added to each well for sealing at room temperature for 1 hour. The phspho-MLC-T18/S19 specific antibody was diluted with the blocking solution at a ratio of 1:200. After adding 20 µL to each well, incubation was carried out overnight at 4 °C with a sealed film.
On the second day, the liquid in the wells was discarded and PBST was added using an automatic separator to wash the plate 5 times. After patting the plate for drying, the second detection antibody was diluted with blocking solution at a ratio of 1:800 and DRAQ5 at a ratio of 1:1000. After adding 20 µL to each well, incubation was carried out at room temperature for 1 hour. Then, the liquid in the wells was discarded and PBST was added using an automatic separator to wash the plate 3 times, followed by adding ddH2O to wash the plate 3 times. After patting the plate for drying, it was scaned using a LICOR Odyssey near-infrared imaging scanner.

ROCK1 = ROCK1 (Homo sapiens, UniProt Q13464); experiment: ROCK1 kinase enzymatic activity (HTRF, STK2 substrate); format: biochemical; conditions: ROCK1 kinase reaction 20 minutes at room temperature
Excerpt: (§1) The kinase activity data was expressed by comparing the kinase activity of the test compound and that of the blank group (containing only DMSO), and the IC50 value was obtained by curve fitting using Prism software (GraphPad7.0).

ROCK2 = ROCK2 (Homo sapiens, UniProt O75116); experiment: ROCK2 kinase enzymatic activity (HTRF, STK2 substrate); format: biochemical; conditions: ROCK2 kinase reaction 30 minutes at room temperature
Excerpt: as §1

[2] = system: Norwegian rat glaucoma model induced by hypertonic saline solution; experiment: Norwegian rat glaucoma model induced by hypertonic saline solution (intraocular pressure); format: in vivo; conditions: 0.02% eye drops once a day, one drop; compared with model control group; 0 to 24 hours after administration
Excerpt: Experimental method: after animal anesthesia, the lateral canthus of the right eye was incised, and a polypropylene ring was placed at the equator of the eyeball, with the notch of the ring located in the upper quadrant of the eyeball, leaving only one scleral surface vein above. […] After injection, the polypropylene ring was removed and antibiotic eye ointment was applied to the operated eye.
After modeling, a rebound tonometer was used continuously to measure the intraocular pressure of both eyes, once every 3 days, and the average of 6 measurements was took each time and recorded; After the intraocular pressure had been stabilized (about 20 days later), the subjects were randomly divided into three groups based on the most recent measurement of intraocular pressure and body weight: sham surgery group, model control group, and test drug group (0.02% Example 29) group, with 5 animals in each group. After grouping, eye drops were administered once a day, with one drop per time. During the administration period, dynamic intraocular pressure was measured once a week (detecting the intraocular pressure change curve from 0 to 24 hours after administration) until the end of the experiment.

Chain of ROCK1 (Q13464 whole entry): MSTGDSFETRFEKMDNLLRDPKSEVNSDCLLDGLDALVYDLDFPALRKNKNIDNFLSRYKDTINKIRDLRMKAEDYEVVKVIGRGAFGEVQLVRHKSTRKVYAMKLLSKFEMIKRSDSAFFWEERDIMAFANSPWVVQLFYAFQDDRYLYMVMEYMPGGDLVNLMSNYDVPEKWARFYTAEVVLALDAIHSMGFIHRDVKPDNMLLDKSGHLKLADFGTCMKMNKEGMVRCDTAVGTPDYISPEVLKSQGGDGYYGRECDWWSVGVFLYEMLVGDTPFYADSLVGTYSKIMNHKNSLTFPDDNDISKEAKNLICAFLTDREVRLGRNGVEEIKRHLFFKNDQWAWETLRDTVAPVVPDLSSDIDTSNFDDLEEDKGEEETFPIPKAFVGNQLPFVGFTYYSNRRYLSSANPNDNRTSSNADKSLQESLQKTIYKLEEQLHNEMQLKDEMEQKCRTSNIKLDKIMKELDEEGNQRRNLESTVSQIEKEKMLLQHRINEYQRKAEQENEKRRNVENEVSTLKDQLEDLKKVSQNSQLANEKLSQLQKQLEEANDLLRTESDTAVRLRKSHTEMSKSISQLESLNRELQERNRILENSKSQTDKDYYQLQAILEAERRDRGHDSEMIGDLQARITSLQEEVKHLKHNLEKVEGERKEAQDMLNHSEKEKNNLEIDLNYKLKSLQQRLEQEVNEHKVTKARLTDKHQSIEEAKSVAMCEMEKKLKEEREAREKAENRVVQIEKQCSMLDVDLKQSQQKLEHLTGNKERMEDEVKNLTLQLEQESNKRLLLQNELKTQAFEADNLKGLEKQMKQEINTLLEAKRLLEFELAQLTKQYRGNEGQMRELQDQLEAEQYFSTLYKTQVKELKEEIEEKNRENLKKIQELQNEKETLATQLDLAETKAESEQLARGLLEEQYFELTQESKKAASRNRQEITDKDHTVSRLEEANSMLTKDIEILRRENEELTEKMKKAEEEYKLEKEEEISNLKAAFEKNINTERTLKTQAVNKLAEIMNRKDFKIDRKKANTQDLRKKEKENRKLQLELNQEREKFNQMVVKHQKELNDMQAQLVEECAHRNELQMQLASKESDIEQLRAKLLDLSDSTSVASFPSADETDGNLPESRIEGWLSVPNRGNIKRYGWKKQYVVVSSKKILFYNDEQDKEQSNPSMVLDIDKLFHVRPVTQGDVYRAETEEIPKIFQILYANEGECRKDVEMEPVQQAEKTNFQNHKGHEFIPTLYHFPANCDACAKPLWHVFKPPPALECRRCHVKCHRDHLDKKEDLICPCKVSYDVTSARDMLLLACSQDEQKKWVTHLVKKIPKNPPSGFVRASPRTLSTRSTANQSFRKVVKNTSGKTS
Chain of ROCK2 (O75116 whole entry): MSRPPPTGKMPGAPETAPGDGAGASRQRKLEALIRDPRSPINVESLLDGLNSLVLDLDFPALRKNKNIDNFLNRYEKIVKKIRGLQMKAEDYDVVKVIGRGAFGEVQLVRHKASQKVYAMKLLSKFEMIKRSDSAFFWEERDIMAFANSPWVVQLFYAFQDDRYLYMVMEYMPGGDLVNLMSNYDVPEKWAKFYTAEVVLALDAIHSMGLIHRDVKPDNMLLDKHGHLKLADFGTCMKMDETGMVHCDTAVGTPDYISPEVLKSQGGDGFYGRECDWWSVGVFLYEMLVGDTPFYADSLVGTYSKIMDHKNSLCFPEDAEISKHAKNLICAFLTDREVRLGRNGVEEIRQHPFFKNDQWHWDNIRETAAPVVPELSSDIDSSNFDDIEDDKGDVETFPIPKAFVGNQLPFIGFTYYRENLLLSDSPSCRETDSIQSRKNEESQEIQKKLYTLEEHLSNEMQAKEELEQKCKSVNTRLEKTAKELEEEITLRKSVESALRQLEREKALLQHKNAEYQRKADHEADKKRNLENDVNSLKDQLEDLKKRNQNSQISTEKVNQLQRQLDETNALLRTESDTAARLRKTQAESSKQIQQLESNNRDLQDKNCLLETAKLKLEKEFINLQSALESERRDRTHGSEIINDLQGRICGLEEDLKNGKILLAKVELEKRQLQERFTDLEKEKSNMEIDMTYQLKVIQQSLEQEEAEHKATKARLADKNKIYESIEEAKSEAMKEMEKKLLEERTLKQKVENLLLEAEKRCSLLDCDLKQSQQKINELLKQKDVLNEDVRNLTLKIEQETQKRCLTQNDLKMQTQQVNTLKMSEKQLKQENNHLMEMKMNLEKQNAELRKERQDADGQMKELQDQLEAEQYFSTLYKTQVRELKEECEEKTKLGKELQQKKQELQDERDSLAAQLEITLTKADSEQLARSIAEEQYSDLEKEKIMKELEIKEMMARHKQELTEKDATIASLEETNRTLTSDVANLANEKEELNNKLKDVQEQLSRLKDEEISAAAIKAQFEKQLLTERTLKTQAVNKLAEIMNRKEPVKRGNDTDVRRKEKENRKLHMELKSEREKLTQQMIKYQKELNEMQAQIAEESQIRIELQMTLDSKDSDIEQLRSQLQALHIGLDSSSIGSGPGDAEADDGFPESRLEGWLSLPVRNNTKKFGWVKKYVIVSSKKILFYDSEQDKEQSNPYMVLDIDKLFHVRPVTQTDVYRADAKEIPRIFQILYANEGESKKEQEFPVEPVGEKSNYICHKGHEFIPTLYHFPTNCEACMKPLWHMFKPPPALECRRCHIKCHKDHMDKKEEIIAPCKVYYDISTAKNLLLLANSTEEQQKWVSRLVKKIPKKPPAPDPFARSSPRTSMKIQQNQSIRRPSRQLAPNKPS

SMILES	IC50 [1] [nM]	IC50 (ROCK1) [nM]	IC50 (ROCK2) [nM]	intraocular pressure [2]
N#CC[C@H](C1CCCCC1)n1cc(-c2ncnc3[nH]ccc23)c(N)n1 [Example 29, (R)-3-(3-amino-4-(7H-pyrrolo[2,3-d]pyrimidin-4-yl)-1H-pyrazol-1-yl)-3-cyclohexylpropionitrile]	106	< 5	< 5	significantly decreased
N#CC[C@]1(n2cc(-c3ncnc4[nH]ccc34)c(N)n2)C[C@H](C#N)C1 [Example 10, (1r,3r)-3-(3-amino-4-(7H-pyrrolo[2,3-d]pyrimidin-4-yl)-1H-pyrazol-1-yl)-3-(cyanomethyl)cyclobutane-1-carbonitrile]	48	< 2	< 1	
N#CCC1(n2cc(-c3ncnc4[nH]ccc34)c(N)n2)CC2(CCC2)C1 [Example 19, 2-(2-(3-amino-4-(7H-pyrrolo[2,3-d]pyrimidin-4-yl)-1H-pyrazol-1-yl)spiro[3.3]heptan-2-yl)acetonitrile]	167	< 5	< 5	
N#CCC(C1CCC1)n1cc(-c2ncnc3[nH]ccc23)c(N)n1 (stereo not shown) [Example 13, 3-(3-amino-4-(7H-pyrrolo[2,3-d]pyrimidin-4-yl)-1H-pyrazol-1-yl)-3-cyclobutylpropionitrile]	122	< 5	< 5	
N#CCC1(n2cc(-c3ncnc4[nH]ccc34)c(N)n2)CC(F)(F)C1 [Example 6, 2-(1-(3-amino-4-(7H-pyrrolo[2,3-d]pyrimidin-4-yl)-1H-pyrazol-1-yl)-3,3-difluorocyclobutyl)acetonitrile]	102	< 5	< 5	
